# Experimental data taken from the NIST ThermoML archive (doi:10.1016/j.tca.2004.12.008).
# ± gives the expanded uncertainty stated by the source.
# Assay: mn = molality of the nth substance listed, in mol/kg
# Details: 101.3 kPa, Liquid, Vibrating tube method
smiles,measurement,setting,value
NCC(=O)NCC(=O)O [glycylglycine] + O,mass density,"298.15 K, m1 = 0.0949",1002.54 ± 0.07 kg/m3
same,mass density,"298.15 K, m1 = 0.2052",1008.5 ± 0.07 kg/m3
same,mass density,"298.15 K, m1 = 0.2997",1013.49 ± 0.08 kg/m3
same,mass density,"298.15 K, m1 = 0.4062",1018.99 ± 0.09 kg/m3
same,mass density,"298.15 K, m1 = 0.5069",1024.06 ± 0.1 kg/m3
same,mass density,"308.15 K, m1 = 0.0949",999.21 ± 0.07 kg/m3
same,mass density,"308.15 K, m1 = 0.2052",1005.1 ± 0.07 kg/m3
same,mass density,"308.15 K, m1 = 0.2997",1010.03 ± 0.08 kg/m3
same,mass density,"308.15 K, m1 = 0.4062",1015.47 ± 0.09 kg/m3
same,mass density,"308.15 K, m1 = 0.5069",1020.5 ± 0.1 kg/m3
